Assay results taken from patent US10213427B2 (Incyte Corporation, priority 2010, dated 2019).
pIC50: −log10 of the molar value.

biological target: FGFR3 enzyme (Millipore) (Homo sapiens (Human), UniProt P22607); assay: FGFR3 Enzymatic Assay; format: biochemical; conditions: FRET peptide phosphorylation, 140 μM ATP
In short: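 FGFR3 preincubated 5-10 min with serially diluted inhibitor in 50 mM HEPES pH 7.5, 10 mM MgCl2, 1 mM EGTA, 5 mM DTT, then reacted 1 h at 25 °C. Peptide phosphorylation detected by FRET; IC50 from variable-slope sigmoidal fit.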

FGFR3 enzyme (Millipore), sequence (P22607 23-806): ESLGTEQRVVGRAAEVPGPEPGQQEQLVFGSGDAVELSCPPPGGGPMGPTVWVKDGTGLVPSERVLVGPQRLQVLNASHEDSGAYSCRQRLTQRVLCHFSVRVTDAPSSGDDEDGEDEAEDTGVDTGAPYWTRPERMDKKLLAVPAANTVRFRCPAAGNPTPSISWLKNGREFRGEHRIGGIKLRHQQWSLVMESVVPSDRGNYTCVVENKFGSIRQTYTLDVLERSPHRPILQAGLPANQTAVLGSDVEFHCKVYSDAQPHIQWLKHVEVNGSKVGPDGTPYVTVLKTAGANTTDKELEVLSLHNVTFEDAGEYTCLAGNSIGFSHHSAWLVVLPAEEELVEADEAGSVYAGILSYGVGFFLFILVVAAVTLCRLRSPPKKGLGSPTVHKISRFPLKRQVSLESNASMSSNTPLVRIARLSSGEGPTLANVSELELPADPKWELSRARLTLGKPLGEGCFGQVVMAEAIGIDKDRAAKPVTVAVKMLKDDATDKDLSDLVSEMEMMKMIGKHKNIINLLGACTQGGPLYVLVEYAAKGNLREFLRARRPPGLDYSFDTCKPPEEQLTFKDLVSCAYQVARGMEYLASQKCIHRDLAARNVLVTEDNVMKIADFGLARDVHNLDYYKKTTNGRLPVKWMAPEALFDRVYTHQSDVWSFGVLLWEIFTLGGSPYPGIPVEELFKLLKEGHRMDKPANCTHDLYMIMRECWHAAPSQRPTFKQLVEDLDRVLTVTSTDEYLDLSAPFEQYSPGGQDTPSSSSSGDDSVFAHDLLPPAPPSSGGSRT

pIC50	Structure (SMILES)
> 8.00	N#CCC(n1cc(-c2cnn3c(-c4cccc(NC(=O)NCC(F)(F)F)c4)cnc3c2)cn1)C(F)(F)F (stereo not shown) [Example 90, N-[3-(7-{1-[1-(Cyanomethyl)-2,2,2-trifluoroethyl]-1H-pyrazol-4-yl}imidazo[1,2-b]pyridazin-3-yl)phenyl]-N′-(2,2,2-trifluoroethyl)urea]
> 8.00	N#CCC(c1ccco1)n1cc(-c2cnn3c(-c4cccc(NC(=O)NCC(F)(F)F)c4)cnc3c2)cn1 (stereo not shown) [Example 91, N-[3-(7-{1-[2-Cyano-1-(2-furyl)ethyl]-1H-pyrazol-4-yl}imidazo[1,2-b]pyridazin-3-yl)phenyl]-N′-(2,2,2-trifluoroethyl)urea]
> 8.00	N#CCC(C1CC1)n1cc(-c2cnn3c(-c4cccc(NC(=O)NCC(F)(F)F)c4)cnc3c2)cn1 (stereo not shown) [Example 92, N-(3-{7-[1-(2-Cyano-1-cyclopropylethyl)-1H-pyrazol-4-yl]imidazo[1,2-b]pyridazin-3-yl}phenyl)-N′-(2,2,2-trifluoroethyl)urea]
> 8.00	N#CCC(c1ccccc1)n1cc(-c2cnn3c(-c4cccc(NC(=O)NCC(F)(F)F)c4)cnc3c2)cn1 (stereo not shown) [Example 93, N-(3-{7-[1-(2-Cyano-1-phenylethyl)-1H-pyrazol-4-yl]imidazo[1,2-b]pyridazin-3-yl}phenyl)-N′-(2,2,2-trifluoroethyl)urea]
< 7.60	CNC(=O)Nc1cccc(-c2cnc3cc(-c4cccc(C(=O)NCc5ccccc5F)c4)cnn23)c1 [Example 96, N-(2-Fluorobenzyl)-3-[3-(3-{[(methylamino)carbonyl]amino}phenyl)imidazo[1,2-b]pyridazin-7-yl]benzamide]
< 7.60	CNC(=O)Nc1cccc(-c2cnc3cc(-c4cccc(C(=O)NC(C)c5ccccc5F)c4)cnn23)c1 (stereo not shown) [Example 97, N-[1-(2-Fluorophenyl)ethyl]-3-[3-(3-{[(methylamino)carbonyl]amino}phenyl)imidazo[1,2-b]pyridazin-7-yl]benzamide]
> 8.00	CNC(=O)C(C)c1ccc(-c2cnn3c(-c4cccc(NC(=O)NCC(F)(F)F)c4)cnc3c2)cc1 (stereo not shown) [Example 98, N-Methyl-2-(4-{3-[3-({[(2,2,2-trifluoroethyl)amino]carbonyl}amino)phenyl]imidazo[1,2-b]pyridazin-7-yl}phenyl)propanamide]
> 8.00	CC(C(=O)N(C)C)c1ccc(-c2cnn3c(-c4cccc(NC(=O)NCC(F)(F)F)c4)cnc3c2)cc1 (stereo not shown) [Example 99, N,N-Dimethyl-2-(4-{3-[3-({[(2,2,2-trifluoroethyl)amino]carbonyl}amino)phenyl]imidazo[1,2-b]pyridazin-7-yl}phenyl)propanamide]
> 8.00	CC(C(=O)NC[C@@H]1CCCO1)c1ccc(-c2cnn3c(-c4cccc(NC(=O)NCC(F)(F)F)c4)cnc3c2)cc1 (stereo partly shown) [Example 100]
> 8.00	CC(C(=O)N1CC[C@H](O)C1)c1ccc(-c2cnn3c(-c4cccc(NC(=O)NCC(F)(F)F)c4)cnc3c2)cc1 (stereo partly drawn) [Example 101, N-{3-[7-(4-{2-[(3S)-3-Hydroxypyrrolidin-1-yl]-1-methyl-2-oxoethyl}phenyl)imidazo[1,2-b]pyridazin-3-yl]phenyl}-N′-(2,2,2-trifluoroethyl)urea]
> 8.00	CC(C(=O)N1CCC(O)CC1)c1ccc(-c2cnn3c(-c4cccc(NC(=O)NCC(F)(F)F)c4)cnc3c2)cc1 (stereo not shown) [Example 102, N-[3-(7-{4-[2-(4-Hydroxypiperidin-1-yl)-1-methyl-2-oxoethyl]phenyl}imidazo[1,2-b]pyridazin-3-yl)phenyl]-N′-(2,2,2-trifluoroethyl)urea]
> 8.00	CC(C(=O)N[C@@H]1CCOC1)c1ccc(-c2cnn3c(-c4cccc(NC(=O)NCC(F)(F)F)c4)cnc3c2)cc1 (stereo partly drawn) [Example 103, N-[(3R)-Tetrahydrofuran-3-yl]-2-(4-{3-[3-({[(2,2,2-trifluoroethyl)amino]carbonyl}amino)phenyl]imidazo[1,2-b]pyridazin-7-yl}phenyl)propanamide]
> 8.00	CC(C(=O)N1CC(O)C1)c1ccc(-c2cnn3c(-c4cccc(NC(=O)NCC(F)(F)F)c4)cnc3c2)cc1 (stereo not shown) [Example 104, N-[3-(7-{4-[2-(3-Hydroxyazetidin-1-yl)-1-methyl-2-oxoethyl]phenyl}imidazo[1,2-b]pyridazin-3-yl)phenyl]-N′-(2,2,2-trifluoroethyl)urea]
> 8.00	CC(C(=O)N1CCOCC1)c1ccc(-c2cnn3c(-c4cccc(NC(=O)NCC(F)(F)F)c4)cnc3c2)cc1 (stereo not shown) [Example 105, N-(3-{7-[4-(1-Methyl-2-morpholin-4-yl-2-oxoethyl)phenyl]imidazo[1,2-b]pyridazin-3-yl}phenyl)-N′-(2,2,2-trifluoroethyl)urea]
> 8.00	CC(C(=O)N1CCC[C@H]1CO)c1ccc(-c2cnn3c(-c4cccc(NC(=O)NCC(F)(F)F)c4)cnc3c2)cc1 (stereo partly drawn) [Example 106, N-{3-[7-(4-{2-[(2S)-2-(Hydroxymethyl)pyrrolidin-1-yl]-1-methyl-2-oxoethyl}phenyl)imidazo[1,2-b]pyridazin-3-yl]phenyl}-N′-(2,2,2-trifluoroethyl)urea]
> 8.00	CC(C(=O)NCCN1CCOCC1)c1ccc(-c2cnn3c(-c4cccc(NC(=O)NCC(F)(F)F)c4)cnc3c2)cc1 (stereo not shown) [Example 107, N-(2-Morpholin-4-ylethyl)-2-(4-{3-[3-({[(2,2,2-trifluoroethyl)amino]carbonyl}amino)phenyl]imidazo[1,2-b]pyridazin-7-yl}phenyl)propanamide]
